Laboratory results from PubChem BioAssay AID2060492 (Molecular Pharmacology Branch, DTP, NCI, 2025).

System: 695427-040-R-J1-PDC complex spheroids, viability percent T/C
Test: Anticancer human tumor 695427-040-R-J1-PDC patient-derived colon adenocarcinoma cell line growth inhibition [GQUAD]
Conditions: for viability, T/C: stronger effect = lower value
Source text: DNA G-quadruplex Stabilizer Agents in Combinations in Complex Spheroids
A high-throughput screen of multi-cell type tumor spheroids was designed to identify active combinations of DNA G-quadruplex stabilizer agents and targeted small molecules. Complex spheroids include a stromal component modeled by human endothelial cells (HUVEC) and fibroblasts modeled by human mesenchymal stem cells (MSCs). The concentration ranges selected for each drug and investigational agent were based upon clinically achievable concentrations if the clinical Cmax of the agent was known.
Compounds. The drugs and investigational agents: pidnarulex (CX-5461; NSC782164), APTO-253 (NSC789042), BRACO-19 (NSC847499), peposertib (NSC802822), ceralasertib (NSC780249), elimusertib (NSC800525), camonsertib (NSC841442), AZD-1390 (NSC803789), olaparib (NSC753686), talazoparib (NSC767125), ART-558 (NSC835418), sotorasib (NSC818433), MRTX-1133 (NSC836407), SN-38 (NSC673596), topotecan (NSC609699), etoposide (NSC141540), doxorubicin (NSC123127), gemcitabine (NSC613327), 5-fluorouracil (NSC19893), paclitaxel (NSC125973), vemurafenib (NSC761431), panobinostat (NSC761190), R-306465 (JNJ-16241199; NSC773264), adavosertib (NSC754352), TP-3654 (NSC805149), carboplatin (NSC241240), KSQ-4279 (NSC840948), and staurosporine (NSC755774) were obtained from the National Cancer Institute (NCI) Developmental Therapeutics Program Chemical Repository (34). The FDA-approved anticancer drug set is available from the NCI Developmental Therapeutics Program. […] The stock solutions were prepared in dimethyl sulfoxide (DMSO, Sigma-Aldrich, St. Louis, MO, cat. D2650) at 800-fold the tested concentration and stored at -70 degrees C prior to their use. All drugs and investigational agents were tested over a range starting from a high concentration at or near the clinical Cmax and decreasing in half-log increments. If the clinical Cmax for an agent had not been determined, the highest concentration tested was 10 microM.
2.3 Cell Culture. All cells were maintained in an incubator at 37 degrees C and 5% CO2 with 95% humidity. The PDC lines were cultured according to standard operating procedures established by the NCI PDMR. All PDCs were thawed and cultured in Matrigel-coated flasks prepared with a working solution of 1X Ham's F-12 nutrient mix, without supplementation (Invitrogen, cat. 11765054), 100 U/mL penicillin-streptomycin (Invitrogen, cat. 15140122), and 2.5% Matrigel (Corning Inc., cat. 354248) for the first three passages. The 857933-349-R-J2-PDC line was cultured in 6C/Colon 1B media, which includes advanced DMEM/F-12 (Thermo Fisher Scientific, cat. 12634028), 10 mM HEPES (Thermo Fisher Scientific, cat. 15630080), 1X GlutaMAX supplement (Thermo Fisher Scientific, cat. 35050061), 0.1 mg/mL primocin (InvivoGen, cat. ant-pm-2), 10% defined fetal bovine serum, heat inactivated (HyClone Laboratories Inc., cat. SH30070.03HI), 50% L-WRN conditioned media (ATCC, cat. CRL-3276), 1.25 mM N-Acetyl-L-cysteine (Sigma-Aldrich, cat. A9165), 10 mM nicotinamide (Sigma-Aldrich, cat. N0636), 1X B-27 supplement (Thermo Fisher Scientific, cat. 17504044), 1X N-2 supplement (Thermo Fisher Scientific, cat. 17502048), 10 microM Y-27632 dihydrochloride (Tocris Bioscience, cat. 1254), and 50 ng/mL human EGF recombinant protein (Thermo Fisher Scientific, cat. PHG0311). The 485176-168-R4-J1-PDC line was cultured in Panc media, which includes all 6C/Colon 1B media components plus 100 ng/mL human FGF-10 (Thermo Fisher Scientific, cat. 100-26), 500 nM SB-431542 (Selleckchem, cat. S1067), and gastrin (Tocris, cat. 3006).
[…]
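Note: spheroids exposed to compounds for seven days before readout.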

Compound: C#Cc1c(F)ccc2cc(O)cc(-c3ncc4c(N5CC6CCC(C5)N6)nc(OCC56CCCN5CC(F)C6)nc4c3F)c12 (centres undefined) + Cc1[nH]c2ccc(F)cc2c1-c1nc2c3cccnc3c3ncccc3c2[nH]1
- IC50 (curve of first compound, second compound 0.0316 µM): 1580 nM
- IC50 (curve of first compound, second compound 0.1 µM): 1280 nM
- IC50 (curve of first compound, second compound 0.316 µM): 1010 nM
- IC50 (curve of first compound, second compound 1 µM): 932 nM
- IC50 (curve of first compound, second compound 3.16 µM): 444 nM
- IC50 (curve of first compound, second compound 10 µM): 438 nM
- viability, T/C (second compound 0.0316 µM, first compound 0.0316 µM): 105%
- viability, T/C (second compound 0.0316 µM, first compound 0.1 µM): 95.3%
- viability, T/C (second compound 0.0316 µM, first compound 0.316 µM): 99.3%
- viability, T/C (second compound 0.0316 µM, first compound 1 µM): 75.5%
- viability, T/C (second compound 0.0316 µM, first compound 3.16 µM): 10.3%
- viability, T/C (second compound 0.0316 µM, first compound 10 µM): 11.7%
- viability, T/C (second compound 0.1 µM, first compound 0.0316 µM): 117%
- viability, T/C (second compound 0.1 µM, first compound 0.1 µM): 91.6%
- viability, T/C (second compound 0.1 µM, first compound 0.316 µM): 93.7%
- viability, T/C (second compound 0.1 µM, first compound 1 µM): 62.3%
- viability, T/C (second compound 0.1 µM, first compound 3.16 µM): 7.36%
- viability, T/C (second compound 0.1 µM, first compound 10 µM): 8.21%
- viability, T/C (second compound 0.316 µM, first compound 0.0316 µM): 102%
- viability, T/C (second compound 0.316 µM, first compound 0.1 µM): 96.7%
- viability, T/C (second compound 0.316 µM, first compound 0.316 µM): 80.4%
- viability, T/C (second compound 0.316 µM, first compound 1 µM): 55.7%
- viability, T/C (second compound 0.316 µM, first compound 3.16 µM): 5.93%
- viability, T/C (second compound 0.316 µM, first compound 10 µM): 5.99%
- viability, T/C (second compound 1 µM, first compound 0.0316 µM): 86.8%
- viability, T/C (second compound 1 µM, first compound 0.1 µM): 84.5%
- viability, T/C (second compound 1 µM, first compound 0.316 µM): 82.5%
- viability, T/C (second compound 1 µM, first compound 1 µM): 48%
- viability, T/C (second compound 1 µM, first compound 3.16 µM): 3.1%
- viability, T/C (second compound 1 µM, first compound 10 µM): 2.8%
- viability, T/C (second compound 3.16 µM, first compound 0.0316 µM): 73.6%
- viability, T/C (second compound 3.16 µM, first compound 0.1 µM): 73.2%
- viability, T/C (second compound 3.16 µM, first compound 0.316 µM): 62.5%
- viability, T/C (second compound 3.16 µM, first compound 1 µM): 19.9%
- viability, T/C (second compound 3.16 µM, first compound 3.16 µM): 1.77%
- viability, T/C (second compound 3.16 µM, first compound 10 µM): 1.26%
- viability, T/C (second compound 10 µM, first compound 0.0316 µM): 70.8%
- viability, T/C (second compound 10 µM, first compound 0.1 µM): 60.4%
- viability, T/C (second compound 10 µM, first compound 0.316 µM): 61.4%
- viability, T/C (second compound 10 µM, first compound 1 µM): 21.9%
- viability, T/C (second compound 10 µM, first compound 3.16 µM): 1.1%
- viability, T/C (second compound 10 µM, first compound 10 µM): 1.13%

Compound: Cc1[nH]c2ccc(F)cc2c1-c1nc2c3cccnc3c3ncccc3c2[nH]1
- viability, T/C (compound 0.1 µM): 103% [middle of 12 runs]
- viability, T/C (compound 0.316 µM): 102% [middle of 12 runs]
- viability, T/C (compound 1 µM): 97% [middle of 12 runs]
- viability, T/C (compound 3.16 µM): 87.2% [middle of 12 runs]
- viability, T/C (compound 10 µM): 80.3% [middle of 12 runs]
- IC50 (compound alone, run of 04/16/2024): > 10000 nM
- IC50 (compound alone, run of 04/22/2024): > 10000 nM
